The values below are quoted from earlier work in patent US6013636A, “Anthelmintic macrocyclic lactone compositions” (Ashmont Holdings Limited, priority 1995, dated 2000).

The conditions of data set [1]: sesame oil, soya bean oil and corn oil.

In the case of `CO[C@H]1C[C@H](O[C@H]2[C@H](C)O[C@@H](O[C@@H]3/C(C)=C/C[C@@H]4C[C@@H](C[C@]5(C=C[C@H](C)[C@@H](C6CCCCC6)O5)O4)OC(=O)[C@@H]4C=C(C)[C@@H](O)[C@H]5OC/C(=C\C=C\[C@@H]3C)[C@]54O)C[C@@H]2OC)O[C@@H](C)[C@@H]1O` [doramectin], the Stability in water result was “oxidise and break down in water”. In data set [1], the Solubility in oils entry is on record as “sparingly soluble”.
With `CO/N=C1\C[C@]2(C[C@@H]3C[C@@H](C/C=C(\C)C[C@@H](C)/C=C/C=C4\CO[C@@H]5[C@H](O)C(C)=C[C@@H](C(=O)O3)[C@]45O)O2)O[C@H](/C(C)=C/C(C)C)[C@H]1C` [moxidectin], the Stability in water entry was “oxidise and break down in water”. The Solubility in oils result in data set [1] is reported as “sparingly soluble”.
Turning to ivermectin, the Stability in water result was “oxidise and break down in water”. Also, in data set [1], the Solubility in oils result is “sparingly soluble”.
